Columns and labels:
[1] = molecular target: purified human Factor XIa (Homo sapiens (Human), UniProt P03951); assay: Factor XIa Assay; assay type: biochemical; conditions: purified human Factor XIa 40 pM, substrate Z-Gly-Pro-Arg-AFC, pH 7.4; read-out: FXIa IC50
Procedure: The effectiveness of a compound of the present invention as an inhibitor of Coagulation Factor XIa can be determined using a relevant purified serine protease, and an appropriate synthetic substrate. The rate of hydrolysis of the chromogenic or fluorogenic substrate by the relevant serine protease was measured both in the absence and presence of compounds of the present invention. Assays were conducted at room temperature or at 37° C. […] A decrease in the rate of fluorescence change in the presence of inhibitor is indicative of enzyme inhibition. Such methods are known to one skilled in the art. […]
Factor XIa determinations were made in 50 mM HEPES buffer at pH 7.4 containing 150 mM NaCl, 5 mM CaCl2, and 0.1% PEG 8000 (polyethylene glycol; JT Baker or Fisher Scientific). Determinations were made using purified human Factor XIa at a final concentration of 40 pM (Sekisui Diagnostics) and he synthetic substrate, Z-Gly-Pro-Arg-AFC, TFA salt (Sigma #C0980) at a concentration of 100 µM.
Activity assays were performed by diluting a stock solution of substrate at least tenfold to a final concentration ≦0.1 Km into a solution containing enzyme or enzyme equilibrated with inhibitor. Times required to achieve equilibration between enzyme and inhibitor were determined in control experiments. Initial velocities of product formation in the absence (Vo) or presence of inhibitor (Vi) were measured. Assuming competitive inhibition, and that unity is negligible compared Km/[S], [I]/e, and [I]/e (where [S], [I], and e respectively represent the total concentrations, of substrate, inhibitor and enzyme), the equilibrium constant (Ki) for dissociation of the inhibitor from the enzyme can be obtained from the dependence of Vo/Vi on [I] shown in the following equation.

[2] = molecular target: purified Human plasma kallikrein (Homo sapiens (Human), UniProt P03952); assay: Kallikrein Assay; assay type: biochemical; conditions: purified Human plasma kallikrein 0.5 nM, substrate Acetyl-K-P-R-AFC, pH 7.4; read-out: P. KLK IC50
Sequence of purified Human plasma kallikrein (P03952 391-638): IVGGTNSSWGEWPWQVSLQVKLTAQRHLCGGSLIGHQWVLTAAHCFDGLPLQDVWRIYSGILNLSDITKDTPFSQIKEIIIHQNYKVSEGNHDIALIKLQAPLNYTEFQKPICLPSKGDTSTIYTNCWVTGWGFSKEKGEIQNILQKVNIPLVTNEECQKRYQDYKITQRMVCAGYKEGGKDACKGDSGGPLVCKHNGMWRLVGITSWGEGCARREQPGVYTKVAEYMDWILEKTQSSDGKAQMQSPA
Sequence of purified Human plasma kallikrein (P03952 20-390 partner): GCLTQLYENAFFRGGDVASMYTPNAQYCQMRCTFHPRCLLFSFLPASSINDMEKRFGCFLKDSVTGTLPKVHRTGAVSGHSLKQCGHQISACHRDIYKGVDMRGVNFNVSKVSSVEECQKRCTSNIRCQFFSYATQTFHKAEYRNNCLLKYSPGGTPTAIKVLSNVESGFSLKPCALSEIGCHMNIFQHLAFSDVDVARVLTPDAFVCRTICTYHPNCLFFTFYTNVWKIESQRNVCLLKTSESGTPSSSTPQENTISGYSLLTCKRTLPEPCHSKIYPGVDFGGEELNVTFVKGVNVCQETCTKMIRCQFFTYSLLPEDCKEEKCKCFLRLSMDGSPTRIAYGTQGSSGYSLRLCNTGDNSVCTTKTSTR
Procedure: The effectiveness of a compound of the present invention as an inhibitor of Kallikrein can be determined using a relevant purified serine protease, and an appropriate synthetic substrate. The rate of hydrolysis of the chromogenic or fluorogenic substrate by the relevant serine protease was measured both in the absence and presence of compounds of the present invention. Assays were conducted at room temperature or at 37° C. […] A decrease in the rate of fluorescence change in the presence of inhibitor is indicative of enzyme inhibition. Such methods are known to one skilled in the art. The results of this assay are expressed as the inhibitory constant, Ki.
Kallikrein determinations were made in 50 mM HEPES buffer at pH 7.4 containing 150 mM NaCl, 5 mM CaCl2, and 0.1% PEG 8000 (polyethylene glycol; Fisher Scientific). Determinations were made using purified Human plasma kallikrein at a final concentration of 0.5 nM (Enzyme Research Laboratories) and the synthetic substrate, Acetyl-K-P-R-AFC (Sigma # C6608) at a concentration of […].
Activity assays were performed by diluting a stock solution of substrate at least tenfold to a final concentration ≦0.2 Km into a solution containing enzyme or enzyme equilibrated with inhibitor. Times required to achieve equilibration between enzyme and inhibitor were determined in control experiments. The reactions were performed under linear progress curve conditions and fluorescence increase measured at 405 Ex/510 Em nm. Values were converted to percent inhibition of the control reaction (after subtracting 100% Inhibition value). IC50 was determined by inflection point from a four parameter logistic curve fit. Ki was calculated using the Cheng Prusoff equation, Ki=IC50/(1+([S]/Km)).

Sequence of purified human Factor XIa (P03951 388-625): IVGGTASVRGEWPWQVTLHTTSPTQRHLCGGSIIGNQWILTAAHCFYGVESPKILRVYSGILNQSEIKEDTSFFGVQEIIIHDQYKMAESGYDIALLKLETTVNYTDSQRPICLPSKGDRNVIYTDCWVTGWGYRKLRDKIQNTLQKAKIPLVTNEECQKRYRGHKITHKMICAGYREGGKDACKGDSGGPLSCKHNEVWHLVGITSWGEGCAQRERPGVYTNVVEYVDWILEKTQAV
Sequence of purified human Factor XIa (P03951 19-387 partner): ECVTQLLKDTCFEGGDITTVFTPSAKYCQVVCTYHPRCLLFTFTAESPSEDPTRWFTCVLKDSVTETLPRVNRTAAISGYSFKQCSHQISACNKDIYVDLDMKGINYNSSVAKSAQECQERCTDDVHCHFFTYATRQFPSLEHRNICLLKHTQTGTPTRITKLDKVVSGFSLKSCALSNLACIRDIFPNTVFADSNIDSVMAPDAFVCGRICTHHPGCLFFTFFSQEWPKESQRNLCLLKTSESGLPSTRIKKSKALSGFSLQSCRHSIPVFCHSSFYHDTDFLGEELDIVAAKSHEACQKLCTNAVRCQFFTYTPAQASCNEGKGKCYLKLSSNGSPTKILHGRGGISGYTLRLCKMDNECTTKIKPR

Row | Compound | IC50 [1] [nM] | IC50 [2] [nM]
1 | O=C(O)c1ccc(NC(=O)[C@@H](Cc2ccccc2)c2ccc(-c3cc(Cl)ccc3-n3cnnn3)c[n+]2[O-])cc1 [Example 1, 4-{[(2S)-2-{5-[5-chloro-2-(1H-tetrazol-1-yl)phenyl]-1-oxidopyridin-2-yl}-3-phenylpropanoyl]amino} benzoic acid] | 32.7 | 83.1
2 | Cc1cc(C(=O)O)ccc1NC(=O)C(CC1CC1)c1ccc(-c2cc(Cl)ccc2-n2cnnn2)c[n+]1[O-] (single isomer, unassigned) [Example 47, 4-[(2-{5-[5-chloro-2-(1H-tetrazol-1-yl)phenyl]-1-oxidopyridin-2-yl}-3-cyclopropylpropanoyl)amino]-3-methylbenzoic acid] | 15.1 | 2350
3 | O=C(Nc1ccc2cn[nH]c2c1)C(Cc1ccccc1)c1ccc(-c2c(F)ccc(Cl)c2F)c[n+]1[O-] (racemic) [Example 5, 2-[5-(3-chloro-2,6-difluorophenyl)-1-oxidopyridin-2-yl]-N-1H-indazol-6-yl-3-phenylpropanamide] | 109 | 91.4
4 | O=C(O)c1ccc(NC(=O)C(CC2CC2)c2ccc(-c3cc(Cl)ccc3-n3cc(CO)nn3)c[n+]2[O-])cc1 (racemic) [Example 42, 4-{[2-(5-{5-chloro-2-[4-(hydroxymethyl)-1H-1,2,3-triazol-1-yl]phenyl}-1-oxidopyridin-2-yl)-3-cyclopropylpropanoyl]amino}benzoic acid] | 8.45 | 1610

Continued, values first:

Row | IC50 [1] [nM] | IC50 [2] [nM] | Compound
5 | 0.24 | 1.9 | O=C(Nc1ccc2cn[nH]c2c1)C(Cc1ccccc1)c1ccc(-c2cc(Cl)ccc2-n2cnnn2)c[n+]1[O-] (racemic) [Example 6, 2-{5-[5-chloro-2-(1H-tetrazol-1-yl)phenyl]-1-oxidopyridin-2-yl}-N-1H-indazol-6-yl-3-phenylpropanamide]
6 | 8.32 | 42.3 | Cc1cc(C(Cc2ccccc2)C(=O)Nc2ccc(C(=O)O)cc2)[n+]([O-])cc1-c1c(F)ccc(Cl)c1F (stereo not drawn) [Example 25, 2-(1-((4-carboxyphenyl)amino)-1-oxo-3-phenylpropan-2-yl)-5-(3-chloro-2,6-difluorophenyl)-4-methylpyridine 1-oxide]
7 | 3.37 | 692 | O=C(O)c1ccc(NC(=O)C(CC2CC2)c2ccc(-c3cc(Cl)ccc3-n3cnnn3)c[n+]2[O-])c(Cl)c1 (single isomer, unassigned) [Example 32, 3-chloro-4-[(2-{5-[5-chloro-2-(1H-tetrazol-1-yl)phenyl]-1-oxidopyridin-2-yl}-3-cyclopropylpropanoyl)amino]benzoic acid]
8 | 0.26 | 3.4 | O=C(O)c1ccc(NC(=O)[C@H](Cc2ccc(F)cc2)c2ccc(-c3cc(Cl)ccc3-n3cnnn3)c[n+]2[O-])cc1 [Example 8, 4-{[(2R)-2-{5-[5-chloro-2-(1H-tetrazol-1-yl)phenyl]-1-oxidopyridin-2-yl}-3-(4-fluorophenyl)propanoyl]amino}benzoic acid]
9 | 4.7 | 678 | O=C(O)c1ccc(NC(=O)C(CC2CC2)c2ccc(-c3cc(Cl)ccc3-n3ccnn3)c[n+]2[O-])cc1 (single isomer, unassigned) [Example 54, 4-[(2-{5-[5-chloro-2-(1H-1,2,3-triazol-1-yl)phenyl]-1-oxidopyridin-2-yl}-3-cyclopropylpropanoyl)amino]benzoic acid]

Reference: patent US9783530B2, “Factor Xla inhibitors” (Merck Sharp & Dohme Corp., priority 2014, dated 2017)
